Data: US20250127863A1, “ANTIMICROBIAL PEPTIDE FOR ONYCHOMYCOSIS” (CBMR SCIENTIFIC NANOSCIENCE B.V., priority 2019, published 2025)
Like-named read-outs stand apart in the source and are kept apart here. No end group written: not given here.

Tests used:
[1] = system: Trichoderma viride; experiment: IC50 growth inhibition; type: cell-based
[2] = system: C. parapsilosis CBS-604; experiment: MIC90 growth inhibition; type: cell-based, Candida parapsilosis; conditions: RPMI 1640 one-fourth strength
Method: (§1) The minimum inhibitory concentration (MIC) value is defined as the lowest sample concentration that inhibited growth. In the Examples, the MIC90 value is presented, which MIC90 values are determined according to established methods known to the person with the skills in the relevant art. Experiments; 1×10E5 CFU of various strains/ml were incubated for 24-48 h at 37° C. in 4× diluted medium of RPMI 1640 with the indicated concentrations of antimicrobial peptide hLF(1-11) [SEQ ID NO: 3]. As controls various strains cells were incubated for 24-48 h at 37° C. with no agent (antimicrobial peptide), and subsequently, growth of the microbial organism (e.g. yeast, bacterium) was monitored by using spectrophotometry with a spectrophotometer at 620 nm. […] ND=Not done. Representative single assay data are listed rather than a range, for clarity reasons and for ease of comparison of peptide efficacy. The MIC was calculated as the lowest antibiotic (antimicrobial peptide) concentration at which growth of the assessed yeast or bacterium (microbe) was inhibited (inhibitory concentration IC90).

[3] = system: C. parapsilosis CBS #61; experiment: MIC90 growth inhibition; type: cell-based, Candida parapsilosis; conditions: RPMI 1640 one-fourth strength
Method: as §1

[4] = system: C. parapsilosis CBS #57; experiment: MIC90 growth inhibition; type: cell-based, Candida parapsilosis; conditions: RPMI 1640 one-fourth strength
Method: as §1

[5] = system: C. parapsilosis CBS #7; experiment: MIC90 growth inhibition; type: cell-based, Candida parapsilosis; conditions: RPMI 1640 one-fourth strength
Method: as §1

[6] = system: C. parapsilosis CMC-2039; experiment: MIC90 growth inhibition; type: cell-based, Candida parapsilosis; conditions: RPMI 1640 one-fourth strength
Method: as §1

[7] = system: C. guilliermondii CBS-2030; experiment: MIC90 growth inhibition; type: cell-based, Candida guilliermondii; conditions: RPMI 1640 one-fourth strength
Method: as §1

[8] = system: C. guilliermondii; experiment: MIC90 growth inhibition; type: cell-based, Candida guilliermondii; conditions: RPMI 1640 one-fourth strength
Method: as §1

[9] = system: Candida parapsilosis; type: cell-based
Method: as §1
For 3 patients A, B, C who were treated with the low concentration of antimicrobial peptide, and for which now clinical improvement was established, it was established that one patient presented with a positive culture (Candida parapsilosis). […] See also Tables 1-3 in Example 4, here below. […]

[10] = system: onychomycosis; type: in vivo, human; conditions: for no results observed, number of patients: 3-5 months treatment of the fungal nail
Method: The anti-fungal activity of the antimicrobial peptide hLF1-11 (GRRRRSVQWCA) [SEQ ID NO: 3] was tested in a clinical trial with human subjects who suffered from at least one nail apparently with onychomycosis.
In the clinical trial a total of 53 patients with different (severe) clinical signs of onychomycosis were included.

[11] = system: Sclerotium rolfsii; experiment: IC50 growth inhibition; type: cell-based
[12] = system: Trichophyton interdigitalis; type: cell-based
Method: as §1
(§2) For two patients D, E who were treated with a solution comprising the high concentration of the antimicrobial peptide, in their nail samples strains of Trichophyton interdigitalis and Hypercrealis spp. were determined. […]

[13] = system: Hypercrealis spp.; type: cell-based; conditions: Hypercrealis spp. strain from nail samples of patients D, E
Method: as §1, §2

[14] = system: Phoma exigua; experiment: IC50 growth inhibition; type: cell-based
[15] = system: C. metapsilosis; experiment: MIC90 growth inhibition; type: cell-based, Candida metapsilosis; conditions: RPMI 1640 one-fourth strength
Method: as §1

[16] = system: Trichophyton interdigitalis; experiment: MIC90 growth inhibition, organisms related to onychomycosis; type: cell-based; conditions: RPMI 1640 one-fourth strength
Method: as §1

[17] = system: Epidermophyton spp; experiment: as above; type: cell-based; conditions: RPMI 1640 one-fourth strength
Method: as §1

[18] = system: onychomycosis; experiment: Clinical study for treating onychomycosis (Example 2); type: in vivo, human; conditions: twice per day
Method: A peptide solution was tested for its treatment effect on onychomycosis in human subjects. The peptide was antimicrobial peptide hLF1-11 (GRRRRSVQWCA) [SEQ ID NO: 3] in water comprising 0.01% by volume acetic acid, based on the total volume of the peptide solution.
Forty two patients are treated with the peptide solution; 20 patients (4 male/16 female) were treated with a solution comprising a low concentration of 3 mg/L of the peptide (dose twice per day), 10 patients (3 male/7 female) were treated with the peptide solution with a high concentration of 30 mg/L of the peptide (dose twice per day) and 12 patients (8 male/4 female) with a combination of high and low concentration (4 weeks 30 mg/L following by 3 mg/L continuing treatment, dose twice per day).
Patients were categorized into groups based on their skin and nail disorders (visible inspection by independent pedicure); low to mild fungal nail problems (treatment group with 3 mg/L for patients in this group), mild to severe fungal nail problems (combination group 30 mg/L-3 mg/L) and highly infected onychomycosis (30 mg/L group).
Results: 90% of the patients observed an improvement in the appearance of the nail after 2 weeks, 92% observed improvement after 4-10 weeks of treatment. Complete recovery was visible for >98% of the patients after 24 weeks. No exclusions were made. Some patients with severe infections (diabetic/autoimmune related) in the high/low combination treatment group were treated longer with the peptide at high dose. All patients continued the treatment as long as it takes to recover completely from the fungal nail infection (in general, relating to the outgrowth of a complete new nail). Duration of the trial was 6-12 months (depending on the infection and the outgrowth of the nail).

GRRRRSVQWCA [hLF1-11, Gly Arg Arg Arg Arg Ser Val Gln Trp Cys Ala]
Inhibitory concentration IC50 [1]: IC50 = 952 μg/mL
Inhibitory concentration MIC (MIC90) ([2]; C. parapsilosis CBS-604, second listing): MIC = 25 μg/ml
Inhibitory concentration MIC (MIC90) [2]: MIC = 25 μg/mL
Inhibitory concentration MIC (MIC90) [3]: MIC = 25-50 μg/mL
Inhibitory concentration MIC (MIC90) [4]: MIC = 25-50 μg/mL
Inhibitory concentration MIC (MIC90) [5]: MIC = 25-50 μg/mL
Inhibitory concentration MIC (MIC90) ([6]; C. parapsilosis CMC-2039, second listing): MIC = 25 μg/ml
Inhibitory concentration MIC (MIC90) [6]: MIC = 25 μg/mL
Inhibitory concentration MIC (MIC90) [7]: MIC = 50 μg/ml
Inhibitory concentration MIC (MIC90) [8]: MIC = 5-40 μg/ml
MIC90 value [9]: 25 to 50 µg/mL
effect in patients D, E who had shown no effect at the high concentration ([10]; 100 mg/L, after 3 months of treatment): positive effect
time after which improvement was observed for the patients ([10]; High concentration solution (33.3 mg/L)): 3-6 months
positive effect of the treatment observed, number of patients ([10]; Low concentrate (3.3 mg/L antimicrobial peptide) in aqueous acetic acid 0.01 volume %): 18 patients
time after which improvement was observed for the patients ([10]; Low concentration solution (3.3 mg/L)): 4-7 months
positive effect of the treatment observed, number of patients ([10]; high concentrate (33.3 mg/L antimicrobial peptide) in aqueous acetic acid 0.01 volume %): 22 patients
no results observed, number of patients ([10]; high concentration): 2 patients
adverse side effects (patients' remarks) ([10]; human, in vivo): No adverse side effects
no results observed, number of patients ([10]; low concentration): 3 patients
positive effect of the nail treatment ([10]; panel of 53 patients, aqueous solution comprising the antimicrobial peptide): 88.64%
patients with visual improvement of the nails ([10]; patients in the clinical trial): more than 85%
positive result obtainable for all patients included in the clinical trial ([10]; when the concentration of the antimicrobial peptide is 100 mg/L): 100%
Inhibitory concentration IC50 [11]: IC50 = 231 μg/mL
MIC90 value [12]: 50 µg/mL
MIC90 value [13]: 50 µg/mL
Inhibitory concentration IC50 [14]: IC50 = 821 μg/mL
Inhibitory concentration MIC (MIC90) [15]: MIC = 25 μg/mL
Inhibitory concentration MIC (MIC90) [16]: MIC = 25-50 μg/mL
Inhibitory concentration MIC (MIC90) [17]: MIC = 25-50 μg/mL
patients who observed an improvement in the appearance of the nail ([18]; after 2 weeks, 3 mg/L, 30 mg/L or combination, 42 patients): 90%
patients who observed improvement ([18]; after 4-10 weeks of treatment): 92%
patients with complete recovery visible ([18]; after 24 weeks): > 98%
